Among the data in US20250034159A1, “INHIBITORS OF EPIDERMAL GROWTH FACTOR RECEPTOR” (ORIC Pharmaceuticals, Inc., priority 2021, published 2025) are IC50 values, retold here.

The test system of one assay is BaF3_EGFR d19/CS cells. Put plainly: Biological Activity Assay D: BaF3 cell proliferation assay, EGFR exon 19 deletion/C797S (BaF3 d19/CS). The assay is classed as cell-based. The following applies: Ba/F3 EGFR; BaF3_EGFR d19/CS cells, ~72 hours, CellTiter-Glo; read-out: BaF3 d19/CS IC50.
The next assay concerns BaF3_EGFR LR/CS cells. Put plainly: Biological Activity Assay D: BaF3 cell proliferation assay, EGFR L858R/C797S mutant (BaF3 LR/CS). The assay is classed as cell-based. The conditions noted are these: Ba/F3 EGFR; BaF3_EGFR LR/CS cells, ~72 hours, CellTiter-Glo; read-out: BaF3 LR/CS IC50.
A further assay relates to Ba/F3_EGFR WT cells. Description: Biological Activity Assay D: BaF3 cell proliferation assay, EGFR wild-type (BaF3 WT). It is filed as cell-based. The following applies: Ba/F3 EGFR; Ba/F3_EGFR WT cells, ~72 hours, CellTiter-Glo; read-out: BaF3 WT IC50.
In assay [1] the target is recombinant human EGFR L858R/C797S double mutant protein (Homo sapiens (Human), UniProt P00533, C797S/L858R). Description: Biological Activity Assay B: biochemical assay against EGFR L858R/C797S protein (EGFR LR/CS). Here is the method:
In Row A of a 384-well polypropylene plate, was added 48 μL of DMSO. In wells A1 and A24, were added 12 μL of DMSO. […] To a well in Row A were added 12 μL of each 10 mM test compound stock (100% DMSO). […] The final intermediate dilution plate contained 4×16-point compound serial dilutions in assay buffer. The DMSO concentration was 10%. The intermediate compound dilution plate was transferred to the Bravo and the “5 uL dispense into ARP.pro” protocol was run. To the black low volume assay ready plates, were added 5 μL of 40 uM Phosphosens peptide sensor/4 mM ATP working solution to each well. […] To column 24, was added 10 μL of assay buffer. The final DMSO concentration was 2.5%. […] The plates were sealed with the TopSeal-A Plus plate seals. […] Set for 90 cycles with 120 second interval. […] The slope of each curve was constructed using Dotmatics in each well, and each IC50s was calculated using a 4-parameter fit model.

Assay [2] concerns the target recombinant human EGFR exon 19 deletion/C797S double mutant protein (Homo sapiens (Human), UniProt P00533, C797S/DEL746-750). Description: Biological Activity Assay C: biochemical assay against EGFR exon 19 deletion/C797S protein (EGFR d19/CS). The essentials:
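IC50 values were fitted with a 4-parameter model to reaction slopes taken from 90 kinetic reads spaced 120 s apart. The Phosphosens sensor/ATP working solution was 40 uM/4 mM, and compound was dosed as 16-point dilutions at 2.5% final DMSO.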

Chain of recombinant human EGFR L858R/C797S double mutant protein (P00533 25-1210 C797S/L858R): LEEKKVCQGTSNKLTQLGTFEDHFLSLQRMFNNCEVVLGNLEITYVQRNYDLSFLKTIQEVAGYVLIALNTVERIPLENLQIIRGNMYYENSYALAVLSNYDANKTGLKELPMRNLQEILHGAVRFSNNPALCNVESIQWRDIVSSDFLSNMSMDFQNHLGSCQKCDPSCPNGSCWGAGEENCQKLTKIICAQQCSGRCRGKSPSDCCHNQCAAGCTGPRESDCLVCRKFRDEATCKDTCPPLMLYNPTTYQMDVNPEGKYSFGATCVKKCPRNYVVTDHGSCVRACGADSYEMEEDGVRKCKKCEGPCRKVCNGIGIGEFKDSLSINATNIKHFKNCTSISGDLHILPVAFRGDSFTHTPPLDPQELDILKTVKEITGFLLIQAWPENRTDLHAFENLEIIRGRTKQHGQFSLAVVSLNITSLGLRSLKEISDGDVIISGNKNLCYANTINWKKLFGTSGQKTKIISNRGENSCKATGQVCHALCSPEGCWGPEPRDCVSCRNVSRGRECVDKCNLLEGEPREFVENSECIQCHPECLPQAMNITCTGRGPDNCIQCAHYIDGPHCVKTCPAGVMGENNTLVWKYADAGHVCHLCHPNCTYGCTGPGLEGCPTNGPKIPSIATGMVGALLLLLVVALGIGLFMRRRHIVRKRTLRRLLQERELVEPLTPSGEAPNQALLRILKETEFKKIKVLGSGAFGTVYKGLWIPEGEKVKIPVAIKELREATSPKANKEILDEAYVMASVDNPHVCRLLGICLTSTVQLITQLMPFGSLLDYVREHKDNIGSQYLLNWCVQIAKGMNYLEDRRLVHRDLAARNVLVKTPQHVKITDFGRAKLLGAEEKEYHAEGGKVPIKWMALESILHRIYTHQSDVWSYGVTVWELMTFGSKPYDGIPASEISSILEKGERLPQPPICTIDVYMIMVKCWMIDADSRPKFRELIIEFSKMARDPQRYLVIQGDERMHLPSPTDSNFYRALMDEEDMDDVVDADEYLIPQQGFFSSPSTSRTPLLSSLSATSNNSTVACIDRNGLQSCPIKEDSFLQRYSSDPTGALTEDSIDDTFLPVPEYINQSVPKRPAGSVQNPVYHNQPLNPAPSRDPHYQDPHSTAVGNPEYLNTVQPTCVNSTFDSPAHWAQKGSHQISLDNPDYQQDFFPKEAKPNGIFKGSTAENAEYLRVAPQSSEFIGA
Chain of recombinant human EGFR exon 19 deletion/C797S double mutant protein (P00533 other isoform, or with tags, fused parts or gaps C797S/del 1-668/del 746-750 limits assumed): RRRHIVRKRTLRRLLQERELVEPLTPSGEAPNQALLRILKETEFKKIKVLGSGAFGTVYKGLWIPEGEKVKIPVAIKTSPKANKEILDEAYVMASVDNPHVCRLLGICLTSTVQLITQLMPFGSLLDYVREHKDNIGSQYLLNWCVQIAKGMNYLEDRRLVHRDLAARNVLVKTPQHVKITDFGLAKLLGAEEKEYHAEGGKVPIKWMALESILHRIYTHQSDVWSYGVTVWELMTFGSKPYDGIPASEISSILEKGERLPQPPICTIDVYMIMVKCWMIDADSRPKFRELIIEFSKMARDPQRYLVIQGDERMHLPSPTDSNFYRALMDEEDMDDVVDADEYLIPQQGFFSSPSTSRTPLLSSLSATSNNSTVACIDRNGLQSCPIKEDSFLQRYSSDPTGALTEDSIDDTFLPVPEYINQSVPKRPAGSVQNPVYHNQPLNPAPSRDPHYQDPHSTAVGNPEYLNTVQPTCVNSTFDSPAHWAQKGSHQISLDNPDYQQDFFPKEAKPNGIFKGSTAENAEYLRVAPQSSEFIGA

For `CN1CCN(c2ccc(-c3nc4c(-c5cn(CCCO)nc5-c5ccc(F)cc5)ccnc4[nH]3)cc2)CC1` [Example 13, 3-[3-(4-Fluorophenyl)-4-{2-[4-(4-methylpiperazin-1-yl)phenyl]-3H-imidazo[4,5-b]pyridin-7-yl}-1H-pyrazol-1-yl]propan-1-ol], the IC50 in the assay with BaF3_EGFR d19/CS cells is 3.71 nM; in the assay with BaF3_EGFR LR/CS cells, 4.1 nM; with Ba/F3_EGFR WT cells it was 255 nM; in assay [1], 0.272 nM; in assay [2], 0.173 nM.
For `CN1CC=C(c2cc3c(-c4cn(CCCO)nc4-c4ccc(F)cc4)ccnc3[nH]2)CC1` [Example 14, 3-{3-(4-Fluorophenyl)-4-[2-(1-methyl-1,2,3,6-tetrahydropyridin-4-yl)-1H-pyrrolo[2,3-b]pyridin-4-yl]-1H-pyrazol-1-yl}propan-1-ol], in that order: 113 nM, 120 nM, 1350 nM, 7.58 nM and 3.3 nM.
The corresponding values for `CN1CCN(c2ccc(-c3nc4c(-c5cn(CCCO)nc5-c5ccc(F)cc5)ncnc4[nH]3)cc2)CC1` [Example 15, 3-[3-(4-Fluorophenyl)-4-{8-[4-(4-methylpiperazin-1-yl)phenyl]-9H-purin-6-yl}-1H-pyrazol-1-yl]propan-1-ol] are 0.949 nM, 1.02 nM, 64.7 nM, 0.27 nM and 0.207 nM.
For `N#Cc1c(-c2ccc(F)cc2)c(-c2ccnc3[nH]c(-c4ccccc4)cc23)nn1CCCO` [Example 16, 4-(4-Fluorophenyl)-1-(3-hydroxypropyl)-3-(2-phenyl-1H-pyrrolo[2,3-b]pyridin-4-yl)-1H-pyrazole-5-carbonitrile], in that order: 3.39 nM, 4.38 nM, 816 nM, 1.47 nM and 1.57 nM.
As for `OCCCn1cc(-c2ccnc3[nH]c(-c4nnco4)cc23)c(-c2ccc(F)cc2)n1` [Example 17, 3-{3-(4-Fluorophenyl)-4-[2-(1,3,4-oxadiazol-2-yl)-1H-pyrrolo[2,3-b]pyridin-4-yl]-1H-pyrazol-1-yl}propan-1-ol], the IC50 in the assay on BaF3_EGFR d19/CS cells was determined as 157 nM; in the assay on BaF3_EGFR LR/CS cells, 153 nM; in the assay with Ba/F3_EGFR WT cells, 1740 nM; in assay [1], 8.44 nM; in assay [2] it was 3.46 nM.
The corresponding values for `CN1CCN(c2ccc(-c3cc4c(-c5nn(CCCO)nc5-c5ccc(F)cc5)ccnc4[nH]3)cc2)CC1` [Example 18, 3-[4-(4-Fluorophenyl)-5-{2-[4-(4-methylpiperazin-1-yl)phenyl]-1H-pyrrolo[2,3-b]pyridin-4-yl}-2H-1,2,3-triazol-2-yl]propan-1-ol] are 1.83 nM, 2.06 nM, 71.4 nM, 0.141 nM and 0.0926 nM.
For `CN1CCN(c2ccc(-c3cc4c(-c5cn(CCCO)nc5-c5ccc(F)cc5)ncnc4[nH]3)cc2)CC1` [Example 19, 3-[3-(4-Fluorophenyl)-4-{6-[4-(4-methylpiperazin-1-yl)phenyl]-7H-pyrrolo[2,3-d]pyrimidin-4-yl}-1H-pyrazol-1-yl]propan-1-ol], in that order: 0.244 nM, 0.402 nM, 8.67 nM, 0.242 nM and 0.17 nM.
For `CCC(=O)CCn1cc(-c2ncnc3oc(-c4ccccc4)nc23)c(-c2ccc(F)cc2)n1` [Example 20, 1-[3-(4-fluorophenyl)-4-(2-phenyl[1,3]oxazolo[5,4-d]pyrimidin-7-yl)-1H-pyrazol-1-yl]pentan-3-one], in that order: 686 nM, 578 nM, 5340 nM, 4.92 nM and 4.19 nM.
`CC(C)(O)CCn1cc(-c2ncnc3oc(-c4ccccc4)nc23)c(-c2ccc(F)cc2)n1` [Example 21, 4-[3-(4-Fluorophenyl)-4-(2-phenyl[1,3]oxazolo[5,4-d]pyrimidin-7-yl)-1H-pyrazol-1-yl]-2-methylbutan-2-ol]: the IC50 in the assay on BaF3_EGFR d19/CS cells stood at 539 nM; with BaF3_EGFR LR/CS cells it was 375 nM; in the assay on Ba/F3_EGFR WT cells it was 18500 nM; in assay [1], 5.2 nM; in assay [2], 5.47 nM.
For `CC(C)(O)CCn1ncc(-c2ncnc3oc(-c4ccccc4)nc23)c1-c1ccc(F)cc1` [Example 22, 4-[5-(4-fluorophenyl)-4-(2-phenyl[1,3]oxazolo[5,4-d]pyrimidin-7-yl)-1H-pyrazol-1-yl]-2-methylbutan-2-ol], in that order: 4100 nM, 3660 nM, 20000 nM, 197 nM and 90.9 nM.
On to `OCCCCn1nc(-c2ccc(F)cc2)c(-c2ccnc3[nH]c(-c4ccccc4)cc23)n1` [Example 23, 4-[4-(4-Fluorophenyl)-5-(2-phenyl-1H-pyrrolo[2,3-b]pyridin-4-yl)-2H-1,2,3-triazol-2-yl]butan-1-ol], for which the IC50 was 31.9 nM in the assay on BaF3_EGFR d19/CS cells; 69.9 nM in the assay with BaF3_EGFR LR/CS cells; 2650 nM with Ba/F3_EGFR WT cells; 1.1 nM in assay [1]; 0.633 nM in assay [2].
For `OC1(CCn2cc(-c3ncnc4oc(-c5ccccc5)cc34)c(-c3ccc(F)cc3)n2)CC1` [Example 24, 1-{2-[3-(4-fluorophenyl)-4-(6-phenylfuro[2,3-d]pyrimidin-4-yl)-1H-pyrazol-1-yl]ethyl}cyclopropan-1-ol], in that order: 44.7 nM, 124 nM, 2490 nM, 1.13 nM and 0.909 nM.
For `N#CCn1cc(-c2ncnc3oc(-c4ccccc4)nc23)c(-c2ccc(F)cc2)n1` [Example 25, [3-(4-fluorophenyl)-4-(2-phenyl[1,3]oxazolo[5,4-d]pyrimidin-7-yl)-1H-pyrazol-1-yl]acetonitrile], in that order: 810 nM, 726 nM, 3490 nM, 13 nM and 7.72 nM.
For `Fc1ccc(-c2nn(CCCC(F)F)cc2-c2ncnc3oc(-c4ccccc4)nc23)cc1` [Example 26, 7-[1-(4,4-difluorobutyl)-3-(4-fluorophenyl)-1H-pyrazol-4-yl]-2-phenyl[1,3]oxazolo[5,4-d]pyrimidine], in that order: 486 nM, 562 nM, 6410 nM, 4.06 nM and 4.22 nM.
For the compound `OCCn1nc(-c2ccc(F)cc2)c(-c2ncnc3[nH]c(-c4ccccc4)nc23)n1` [Example 27, 2-[4-(4-Fluorophenyl)-5-(8-phenyl-9H-purin-6-yl)-2H-1,2,3-triazol-2-yl]ethan-1-ol], the IC50 with BaF3_EGFR d19/CS cells was 464 nM; in the assay with BaF3_EGFR LR/CS cells it was 208 nM; in the assay with Ba/F3_EGFR WT cells it was 11700 nM; in assay [1], 8.65 nM; in assay [2] it was 3.12 nM.
In the case of `OCCCCn1nc(-c2ccc(F)cc2)c(-c2ncnc3[nH]c(-c4ccccc4)nc23)n1` [Example 28, 4-[4-(4-fluorophenyl)-5-(8-phenyl-9H-purin-6-yl)-2H-1,2,3-triazol-2-yl]butan-1-ol], the IC50 with BaF3_EGFR d19/CS cells is 885 nM; in the assay on BaF3_EGFR LR/CS cells it was 493 nM; in the assay with Ba/F3_EGFR WT cells, 17800 nM; in assay [1], 10.8 nM; in assay [2], 4.16 nM.
Regarding `CN1CCN(c2ccc(-c3cc4c(-c5oc(CCCO)nc5-c5ccc(F)cc5)ccnc4[nH]3)cc2)CC1` [Example 29, 3-[4-(4-Fluorophenyl)-5-{2-[4-(4-methylpiperazin-1-yl)phenyl]-1H-pyrrolo[2,3-b]pyridin-4-yl}-1,3-oxazol-2-yl]propan-1-ol], the IC50 with BaF3_EGFR d19/CS cells was found to be 1.22 nM; in the assay with BaF3_EGFR LR/CS cells it was 1.29 nM; in the assay with Ba/F3_EGFR WT cells it was 88.4 nM; in assay [1], 0.111 nM; in assay [2] it was 0.0769 nM.
Turning to `N#CCn1cc(-c2ncnc3oc(-c4ccccc4)cc23)c(-c2ccc(F)cc2)n1` [Example 30], the IC50 in the assay on BaF3_EGFR d19/CS cells worked out at 319 nM; in the assay on BaF3_EGFR LR/CS cells, 260 nM; in the assay with Ba/F3_EGFR WT cells, 4440 nM; in assay [1] it was 1.72 nM; in assay [2], 1.88 nM.
The corresponding values for `Fc1ccc(-c2nn(C3COC3)cc2-c2ncnc3oc(-c4ccccc4)cc23)cc1` [Example 31, 4-[3-(4-Fluorophenyl)-1-(oxetan-3-yl)-1H-pyrazol-4-yl]-6-phenylfuro[2,3-d]pyrimidine] are 66.5 nM, 97.9 nM, 3320 nM, 0.521 nM and 0.446 nM.
